Experimental data published in ChEMBL document CHEMBL1121451, “Neuroleptic activity in 5-aryltetrahydro-gamma-carbolines” (J Med Chem, 1980).

Experiments:
Type in all cases: functional
Rattus norvegicus [1] = test: Tested for neuroleptic activity by measuring antagonism of d-amphetamine sulfate at intraperitoneal dosage of 5 mg/kg, after 1 hour in rat; Range is 10-32; settings: ip
Rattus norvegicus [2] = test: Tested for neuroleptic activity by measuring antagonism of d-amphetamine sulfate at intraperitoneal dosage of 5 mg/kg, after 5 hours in rat; settings: ip
Rattus norvegicus [3] = test: Tested for neuroleptic activity by measuring antagonism of d-amphetamine sulfate at intraperitoneal dosage of 5 mg/kg, after 24 hours in rat; settings: ip
Rattus norvegicus [4] = test: Tested for neuroleptic activity by measuring antagonism of d-amphetamine sulfate at intraperitoneal dosage of 5 mg/kg, after 1 hour in rat; Range is 3.2-10; settings: ip
Rattus norvegicus [5] = organism: Rattus norvegicus; test: Inhibition of amphetamine induced stereotypy in rats; pretreated 1 hr before amphetamine.

SMILES | ED50 (Rattus norvegicus [1]) [mg/kg] | ED50 (Rattus norvegicus [2]) [mg/kg] | ED50 (Rattus norvegicus [3]) [mg/kg] | ED50 (Rattus norvegicus [4]) [mg/kg] | ED50 (Rattus norvegicus [5]) [mg/kg]
Cl.Fc1ccc(-n2c3c(c4cc(F)ccc42)CN(CCc2ccccc2)CC3)cc1 | 10 | > 32 | – | – | –
CN1CCc2c(c3ccccc3n2-c2ccccc2)C1.Cl | 10 | – | > 32 | – | –
OC(CCCN1CCc2c(c3cc(F)ccc3n2-c2ccc(F)cc2)C1)c1cccs1 (stereo not drawn) | 10 | > 32 | – | – | –
COc1ccc(-n2c3c(c4cc(F)ccc42)CN(CCCC(=O)c2ccc(F)cc2)CC3)cc1.Cl | 10 | > 32 | – | – | –
OC(CCN1CCc2c(c3cc(F)ccc3n2-c2ccc(F)cc2)C1)c1ccc(F)cc1 (stereo not drawn) | – | > 10 | > 10 | 3.2 | –
Cl.O=C(CCCN1CCc2c(c3cc(F)ccc3n2-c2ccc(C(F)(F)F)cc2)C1)c1ccc(F)cc1 | – | – | – | – | > 32
COc1ccc2c(c1)c1c(n2-c2ccc(F)cc2)CCN(C)C1.Cl | – | > 32 | – | – | > 32
CCOC(=O)N1CCc2c(c3cc(F)ccc3n2-c2ccc(F)cc2)C1 | – | > 32 | > 32 | – | > 32
Cc1ccc2c(c1)c1c(n2-c2ccccc2)CCN(C)C1 | 10 | > 32 | > 32 | – | –
CCCN1CCc2c(c3cc(F)ccc3n2-c2ccc(F)cc2)C1.Cl | – | > 10 | – | 3.2 | –
Fc1ccc(C(=CCCN2CCc3c(c4cc(F)ccc4n3-c3ccc(F)cc3)C2)c2ccc(F)cc2)cc1 | – | > 32 | > 32 | – | > 32
Cl.OC(CCCN1CCc2c(c3cc(F)ccc3n2-c2cccc(C(F)(F)F)c2)C1)c1ccc(F)cc1 (stereo not drawn) | – | > 32 | – | – | > 32
CCN1CCc2c(c3cc(F)ccc3n2-c2ccc(F)cc2)C1.Cl | – | > 10 | > 10 | 3.2 | –
Cl.O=C(CCCCN1CCc2c(c3cc(F)ccc3n2-c2ccc(F)cc2)C1)c1ccc(F)cc1 | – | > 32 | > 32 | – | > 32
Cl.Cl.OC(CCCN1CCc2c(c3cc(F)ccc3n2-c2ccc(F)cc2)C1)c1cccnc1 (stereo not drawn) | – | > 3.2 | – | – | > 3.2
COc1ccc(-n2c3c(c4cc(F)ccc42)CN(CCCC(O)c2ccc(F)cc2)CC3)cc1.Cl (stereo not drawn) | – | 3.2 | > 3.2 | – | 1
Cl.OC(CCCN1CCc2c(c3cc(F)ccc3n2-c2ccc(F)cc2)C1)c1cccc(C(F)(F)F)c1 (stereo not drawn) | – | > 10 | – | – | > 10
Cl.O=C(CCCN1CCc2c(c3cc(F)ccc3n2-c2ccc(F)cc2)C1)c1cccs1 | 10 | > 32 | – | – | –
Cl.OC(CCCN1CCc2c(c3cc(F)ccc3n2-c2cccc(F)c2)C1)c1ccc(F)cc1 (stereo not drawn) | – | > 10 | – | 3.2 | –
Cn1c2c(c3cc(F)ccc31)CN(CCCC(=O)c1ccc(F)cc1)CC2 | 10 | > 32 | – | – | –
Fc1ccc(-n2c3c(c4cc(F)ccc42)CNCC3)cc1 | 10 | – | – | – | –
Cl.OC(CCCN1CCc2c(c3cc(F)ccc3n2-c2ccc(F)cc2)C1)c1ccc(Cl)c(C(F)(F)F)c1 (stereo not drawn) | – | > 32 | > 32 | – | > 32
Cl.O=C(CCCN1CCc2c(c3cc(F)ccc3n2-c2cccc(C(F)(F)F)c2)C1)c1ccc(F)cc1 | – | – | – | – | > 32
Cl.Fc1ccc(C(CCCN2CCc3c(c4cc(F)ccc4n3-c3ccc(F)cc3)C2)c2ccc(F)cc2)cc1 | – | > 32 | > 32 | – | > 32
CC(C)(C)CCN1CCc2c(c3cc(F)ccc3n2-c2ccc(F)cc2)C1.Cl | – | > 10 | > 10 | – | > 10
Cl.Fc1ccc(-n2c3c(c4cc(F)ccc42)CN(Cc2ccccc2)CC3)cc1 | – | > 10 | > 10 | 3.2 | –
COc1ccc2c(c1)c1c(n2-c2ccccc2)CCN(C)C1.Cl | – | > 32 | – | – | > 32
OC(CCCN1CCc2[nH]c3ccc(F)cc3c2C1)c1ccc(F)cc1 (stereo not drawn) | – | > 10 | > 10 | 3.2 | –
CN1CCc2c(c3cc(Br)ccc3n2-c2ccccc2)C1.Cl | – | – | – | 3.2 | –
Cc1ccc(C(=O)CCCN2CCc3c(c4cc(F)ccc4n3-c3ccc(F)cc3)C2)cc1 | – | > 10 | – | – | > 10
